Measurements: patent US4000269A, “S-(α-substituted-arylmethylthio, -arylmethylsulfinyl, and -arylmethylsulfonyl)methyl phosphorus esters used as insecticides” (priority 1975, dated 1976)
Read-outs that look alike come from different tables or passages of the source.

Tests used:
[1] = tested on: Southern corn rootworm larvae (Diabrotica undecimpunctata); experiment: Southern Corn Rootworm Control (treated soil, dust on talc); format: in vivo; conditions: 144 h, potting soil, mortality after 6 days, read-out: Percent Control of Southern Corn Rootworm Larvae; for mortality at 1120.85 g/ha: 1 lbs./Acre; for mortality at 11208.5 g/ha: 10 lbs./Acre; for mortality at 56042.5 g/ha: 50 lbs./Acre
Method: (§1) Compounds are prepared as dusts on talc. The compounds are dissolved in acetone, and appropriate rates obtained by serial dilution. One and one-quarter milliliters of solution is pipetted onto a standard volume of dust in 1 -ounce jars, and the acetone allowed to evaporate. Twenty-five milliliters of moist soil and about 200 millet seeds are placed in the jar, capped and the contents thoroughly mixed. Ten second-instar larvae of the Southern corn rootworm (Diabrotica undecimpunctata ) are then placed in each jar. Mortality counts are made after 6 days and percent mortality determined.

Southern armyworm larvae = experiment: Cut-Stem Systemic Test (Southern Armyworm); format: in vivo; conditions: Spodoptera eridania, 72 h, read-out: % Mortality, Southern Armyworms (Systemic Insecticidal Activity)
Method: (§2) The compound to be tested is formulated as an emulsion containing 0.1 gram of test material, 0.2 gram of Alrodyne 315 emulsifier, 10 ml. of acetone and 90 ml. of water. This is diluted tenfold with water to give a 100 ppm. emulsion for the initial test. A sieva lima bean plant with only the primary leaves unfolded is cut off just above soil level and inserted into a 2-ounce bottle of 100 ppm. emulsion and held in place by a bit of cotton wrapped around the stem. The bottle is then placed in a ventilated box with the leaves extending outside the box, such that any possible fumes from the compound will be drawn out the end of the box rather than rising to affect the test leaves. After holding 3 days at 80° F. and 60% R.H., one leaf from each plant is placed on a moist filter paper in the bottom of a petri dish. Ten third-instar Southern armyworm larvae are then added to each dish and mortality counts made after holding another 3 days at 80° F. and 60% R.H.

[2] = Mammalian Toxicity Studies (LD50 for Rats); design: species or system male albino rats (Carworth Farms Nelson strain); conditions: rat, in vivo; 14-day observation; corn oil
Method: (§3) Twenty male albino rats or mice of the Carworth Farms Nelson strain (CFI strain for mice)(or other suitable strain) weighing approximately 90 to 120 grams (18-20g. for mice) are selected. Basically, these animals are fasted 24 hours before dosing. Mice are not fasted.
(§4) For materials which are soluble or easily dispersed in an aqueous medium, a 20% solution or suspension is prepared in an aqueous solution of 0.2% agar and 0.1% "Tween" 80. The same series of dosages (grams or milliliters of material per kilogram of animal body weight) are used for all materials in this test. If no previous information is available on the compound or its analogs, a maximum dosage of 10 g/kg is selected to differ by a geometric factor of 2 from the preceding dose, i.e., 10, 5, 2.5, 1.25 g/kg. A sufficient number of dosages are given so as to bracket a 50% response. The animals are observed for several hours after dosing and daily over a 14-day observation period. At the end of this period the survivors are sacrificed, weighed and subjected to a gross autopsy. The results are tabulated and the LD50 is calculated by the method of moving averages using the tables constructed by Weil. [Weil, C. S., Biometrics, 8: (3), 249-263, 1952].
(§5) Samples received as liquids may be administered undiluted or as suspensions in aqueous Agar-Tween, depending on the viscosity of the material. If the material is believed to be relatively non-toxic, an initial maximum dosage of 10 ml/kg is selected and subsequent dosages are selected based upon the severity of gross signs of toxicity.
(§6) For organic phosphate anticholinesterase insecticides, the procedure is modified somewhat. The phosphates are readied for administration by preparing a solution or dispersion in corn oil (Mazola), the concentration of which is adjusted so that the total volume of the dose is 20 ml/kg ([…]) in every case. The initial solution is prepared by deciding upon the maximum dosage in mg/kg to be administered and preparing 50 ml. (10 in mouse test) of this solution of such a concentration that the desired dosage in mg/kg is delivered when 2 ml. (0.5 ml. in mouse test) of the solution is administered for 100 g (20 g in mouse) of rat body weight. Serial dilutions differing by a factor of two are then prepared for each lower dosage level.

Mites = experiment: Cut-Stem Systemic Test (Mites); format: in vivo; conditions: 100 ppm. emulsion, 3 days
Method: as §2
The same procedure described above is employed in the mite systemic evaluation excepting that the sieva lima bean leaves are infested with mites, both adult and nymphs, while the leaves are in the ventilated box. After 3 days the leaves are removed and examined under a microscope to determine percent mortality. Data obtained are reported in the Table IV below where it can be seen that the compounds of the present invention are systemically effective insecticidal agents.

[3] = Mammalian Toxicity Studies (LD50 for Mice); design: species or system mice (Carworth Farms Nelson, CFI strain); conditions: mouse, in vivo; 14-day observation; corn oil
Method: as §3, §4, §5, §6

[4] = tested on: False wireworm larvae (Eleodes suturalis); experiment: False Wireworm Control (treated soil, dust on talc); format: in vivo; conditions: 144 h, potting soil, mortality after 6 days, read-out: Percent Control of False Wireworms; for mortality at 1120.85 g/ha: 1 lbs./Acre; for mortality at 11208.5 g/ha: 10 lbs./Acre; for mortality at 56042.5 g/ha: 50 lbs./Acre
Method: as §1, with “three wheat” for “200 millet”, “capped,” for “capped”, “False wireworm” for “second-instar”, “(Eleodes suturalis ), 10 days old,” for “of the Southern corn rootworm (Diabrotica undecimpunctata )”

Rats = tested on: Rats; design: unit not given here; conditions: Value reported in the literature; 20160 min; cited from earlier work
[5] = cut-stem, 100 ppm. emulsion, larvae held 3 days

SMILES | mortality at 1120.85 g/ha [1] [%] | mortality at 11208.5 g/ha [1] [%] | mortality at 56042.5 g/ha [1] [%] | mortality at 100 µg/mL (Southern armyworm larvae; [5]) [%] | LD50 at 336 h [2] [mg/kg] | % Mortality, Mites (Systemic Insecticidal Activity) (Mites) [%] | LD50 at 336 h [3] [mg/kg] | mortality at 1120.85 g/ha [4] [%] | mortality at 11208.5 g/ha [4] [%] | mortality at 56042.5 g/ha [4] [%] | mortality at 100 µg/mL (Southern armyworm larvae) [%] | LD50 Rats (Rats)
CCCSP(=O)(OCC)SCSC(C)(C)c1ccccc1 (stereo not drawn) [Example 12, S-(α,α-Dimethylbenzylthio)methyl O-Ethyl S-Propyl Phosphorodithioate] | 0 | 100 | 100 | 0 | 34 | 90 |  |  |  |  |  | 
CCOP(=S)(OCC)SCSCC [reference compound] |  |  |  |  | 1 to 5 |  | 5.6 |  |  |  |  | 
COP(=S)(OC)SCSC(C)(C)c1ccccc1 [Example 5, S-(α,α-Dimethylbenzylthio)methyl O,O-Dimethyl Phosphorodithioate] | 100 | 100 | 100 |  | 28 |  | 117 | 100 | 100 | 100 |  | 
COP(=S)(OC)SCSC(C)(C)c1ccc(Br)cc1 [Example 13, S-(p-Bromo-α,α-dimethylbenzylthio)methyl O,O-Dimethyl Phosphordithioate] | 90 | 100 | 100 | 100 | 280 | 100 |  |  |  |  |  | 
COP(=S)(OC)SCSC(C)(C)c1ccc(Cl)c(Cl)c1 [Example 11, S-(3,4-Dichloro-α,α-dimethylbenzylthio)methyl O,O-Dimethyl Phosphorodithioate] | 100 | 100 | 100 | 90 | > 200 | 30 |  |  |  |  |  | 
CCOP(=S)(OCC)SCSC(C)(C)c1ccc(Cl)c(Cl)c1 [Example 8, S-(3,4-Dichloro-α,α-dimethylbenzylthio)methyl O,O-Diethyl Phophorodithioate] |  |  |  | 100 | 100 | 100 |  |  |  |  |  | 
CCOP(=S)(OCC)SCSC(C)(C)c1ccccc1 [Example 2, S-(α,α-Dimethylbenzylthio)methyl O,O-Diethyl Phosphorodithioate] | 90 | 100 | 100 |  | 18 | 80 | 71 | 0 | 100 | 100 | 100 | 
CCOP(=S)(OCC)SCSC(C)c1ccccc1 (stereo not drawn) [Example 15, S-(α-Methylbenzylthio)methyl O,O-Diethyl Phosphorodithioate] | 80 | 100 | 100 |  |  |  | 67 | 0 | 100 | 100 |  | 
COP(=O)(SC)SCSC(C)(C)c1ccc(Cl)cc1 (stereo not drawn) [Example 16, S-(p-Chloro-α,α-dimethylbenzylthio)methyl O-Methyl S-Methyl Phosphorodithioate] | 0 | 100 | 100 | 0 |  | 30 |  |  |  |  |  | 
CCOP(=S)(OCC)SC[S+]([O-])C(C)(C)c1ccccc1 (stereo not drawn) [Example 27, S-(α,α-Dimethylbenzylsulfinyl)methyl O,O-Diethyl Phosphorodithioate] | 0 | 100 | 100 |  |  |  | 88 | 0 | 100 | 100 |  | 
COP(=S)(OC)SCSC(C)(C)c1ccc(Cl)cc1 [Example 7, S-(p-Chloro-α,α-dimethylbenzylthio)methyl O,O-Dimethyl Phosphorodithioate] | 100 | 100 | 100 | 100 | 230 | 100 |  |  |  |  |  | 
CCOP(=S)(OCC)SCSCc1ccccc1 [reference compound] |  |  |  |  |  |  | 67 |  |  |  |  | 25
